This note sets out measurements from PubChem BioAssay AID179 (DTP/NCI, 2004).

The subject of the assay is CEM cells HIV-1 protection, formazan growth assay. The assay can be described thus: NCI AIDS Antiviral Assay. To be noted: for IC50: measured here: growth of uninfected CEM cells. The gist of the method:
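Five concentrations of each compound were applied to infected and uninfected human CEM cells. Protection from HIV-1 was judged from growth measured with a soluble formazan assay.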

One may read the EC50 as the concentration giving half of the maximal effect. Usually IC50 stands for the concentration that inhibits the measured activity by half.

Activity calls are given as the source filed them.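 Rule for the calls: active = compounds giving half or more protection of infected cells from virus-caused growth loss, again on retest; inactive = the rest.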 Where a SMILES comes first, the peptide text is derived from it. The star is where a group is joined. Boc = CC(C)(C)OC(=O)*; OBn = c1ccc(CO*)cc1 Bounds are passed on as bounds.

As to `CCN(CC)CCNCC(O)CN1CCN(C)CC1` (stereo not given), the EC50 is over 200 µM and the concentration for half-maximal inhibition (IC50) worked out at 155 µM.

As for `CCN(CC)c1c(C(=O)/C=C/c2ccccc2)c(-c2ccccc2)nn(C)c1=O`, the EC50 is over 18.6 µM and the IC50 is 9.12 µM.

`COc1cc([C@H]2CC(=O)C[C@@H](c3cc(OC)c(OC)c(OC)c3)C23C(=O)c2ccccc2C3=O)cc(OC)c1OC`: the EC50 is over 200 µM and the half-maximal inhibitory concentration (IC50) was over 200 µM.

Regarding `Cn1c(=O)n2n(c1=O)C1C3C4C5C3C13COCC53C42` (stereo not given), the outcome was inactive.

Regarding `COc1cc(O)c2c(=O)oc3cc(O)cc(C)c3c2c1`, the EC50 was over 34.7 µM and the IC50 is over 34.7 µM.

As for `CC/C(=N/O)c1ccc2[nH]c3c(C)cc([N+](=O)[O-])c(C)c3c2c1`, the EC50 is over 12 µM and the IC50 amounted to 7.41 µM.

Consider `CN(C)c1ccc2c(c1)-c1cc(N(C)C)ccc1C2=CC=C(C#N)C#N`, for which the EC50 is over 4.27 µM and the IC50 was over 4.27 µM.

With `Nc1cc(C(=O)NC2C3CC4CC(C3)CC2C4)[nH]c(=S)n1` (stereo not given), the EC50 is over 813 µM and the 50% inhibitory concentration (IC50) is over 813 µM.

`O=C(OC1CCCCC1)c1cc(NC(=S)c2ccsc2)ccc1Cl`: the EC50 was 0.141 µM and the IC50 came out at 11.2 µM.

On to `COCCNc1cncc(C(N)=O)c1`, for which the EC50 was over 200 µM and the 50% inhibitory concentration (IC50) is over 200 µM.

In the case of `COC1/C=C/OC2(C)Oc3c(C)c(OC(C)=O)c4c(c3C2=O)C(=O)C=C(NC(=O)/C(C)=C\C=C\C(C)C(O)C(C)C(O)C(C)C(OC(C)=O)C1C)C4=O` (stereo not given), the EC50 was over 200 µM and the IC50 is 5.89 µM.

Turning to `CNc1nc(C(N)=O)c(N)s1`, the EC50 is over 200 µM and the IC50 is over 200 µM.

Consider `CCOc1ccc(NC(=O)/C(CC(=O)c2c[n+](=O)c3ccccc3n2[O-])=N\OCCCc2ccccc2)cc1`, for which the EC50 is over 123 µM and the half-inhibitory concentration (IC50) was over 123 µM.

Regarding `Cn1c(=O)nc2n(-c3ccc(F)c(F)c3)c3ccccc3nc-2c1=O`, the result was inactive.

On to `Cc1ccnc(NC(=O)Nc2ccc(C)cc2[N+](=O)[O-])c1`, for which the EC50 is over 200 µM and the 50% inhibitory concentration (IC50) is over 200 µM.

With `CC1(C)OC2C(=O)OC(COCc3ccccc3)C2O1` (stereo not given), the EC50 was over 36.3 µM and the IC50 was over 36.3 µM.

In the case of `O=C(NCCCCCCO)c1cccc2cc3ccccc3nc12`, the EC50 was over 200 µM and the IC50 was determined as 18.6 µM.

With `O=C(NP1(=O)NCc2ccccc2CN1)OC1CCCCC1`, the EC50 is over 288 µM and the IC50 is over 288 µM.

For the molecule `CC1=C(C)CS(=O)N(c2ccccc2)C1` (stereo not given), the EC50 is over 200 µM and the IC50 came to 89.1 µM.

As for `CNP(=O)(NC)NC`, the EC50 was over 200 µM and the 50% inhibitory concentration (IC50) was over 200 µM.

For `COC(=O)C1c2c(C)cc3n2C(C=CC3)C1C(=O)OC` (stereo not given), the EC50 is over 324 µM and the IC50 amounted to 115 µM.

Consider `O=c1c2c(sc3ccccc13)NCN(CCc1ccccc1)C2`, for which the EC50 was 17.4 µM and the concentration for half-maximal inhibition (IC50) worked out at 40.7 µM.

Consider `CCCC/C(=N\OC(=O)N(C)C)c1ccccc1`, for which the EC50 was over 200 µM and the half-maximal inhibitory concentration (IC50) is over 100 µM.

Turning to `CC1=N/C(=C\c2ccc(N(C)C)cc2)C(=O)O1`, the EC50 was over 81.3 µM and the IC50 is over 81.3 µM.

With `CN1CCN(Cc2nc3c(s2)CCc2sccc2-3)CC1`, the EC50 is over 200 µM and the IC50 is 57.5 µM.

Turning to `COC(=O)C(C)NC1=C(Cl)C(=O)C(NC(C)C(=O)OC)=C(Cl)C1=O` (stereo not given), the outcome was inactive.

As to `CCOC(=O)N/N=C/c1cccs1`, the EC50 was over 200 µM and the half-inhibitory concentration (IC50) was over 200 µM.

With `Cc1onc(-c2c(Cl)cccc2Cl)c1C(=O)SC1=NC(C)N2C(SC(=O)c3c(-c4c(Cl)cccc4Cl)noc3C)=NC(C)N12` (stereo not given), the EC50 was over 19.1 µM and the IC50 came to 18.2 µM.

In the case of `CCC[CH2][Sn]([CH2]CCC)([O]C(=O)C(OC(C)=O)c1ccccc1)[O]C(=O)C(OC(C)=O)c1ccccc1` (stereo not given), the EC50 was over 11.5 µM and the IC50 was 0.191 µM.

In the case of `CC(C)NCCNC(=O)c1ccccc1Nc1c(Cl)cccc1Cl`, the EC50 is over 200 µM and the IC50 amounted to 14.8 µM.

Regarding `Cn1c2ccccc2c2ccc3c(c21)C(=O)c1ccc2c4ccccc4n(C)c2c1C3=O`, the EC50 is over 200 µM and the 50% inhibitory concentration (IC50) was over 200 µM.

For the molecule `CC(=O)c1cccc(NC2C(N)C(NC(=O)N(C)C)(C(C)O)C(C)(O)C2(O)COC(=O)c2c(C)cccc2O)c1` (stereo not given), the EC50 is over 64.6 µM and the 50% inhibitory concentration (IC50) was 0.0427 µM.

For the molecule `C=C1C(O)O[C@@H]2O[C@@]3(C)CC[C@H]4[C@H](C)CC[C@@H]1[C@@]24OO3` (stereo not given in full), the EC50 was over 200 µM and the IC50 came out at 8.71 µM.

`BrC12c3ccccc3Sc3ccccc3C1(Br)c1ccccc12` (stereo not given): the result was inactive.

With `Cc1cc2c3ccccc3n(C)c2c2c1C(=O)C=CC2=O`, the EC50 was over 69.2 µM and the half-maximal inhibitory concentration (IC50) came out at 5.89 µM.

Consider `CN(C)C1=Nc2ccccc2C(=S)N2CSCC12` (stereo not given), for which the EC50 is over 200 µM and the IC50 was found to be 29.5 µM.

Regarding `COC(=O)C1=NC(=S)N=C(C(=O)OC)C12Cc1ccccc1C2=O`, the EC50 was over 724 µM and the IC50 came out at 214 µM.

Consider `O=C(c1cc2ccccc2[nH]1)C(O)(c1cc2ccccc2[nH]1)c1cc2ccccc2[nH]1`, for which the EC50 was over 9.33 µM and the IC50 is over 9.33 µM.

Consider `COc1ccc(NC(=O)Nc2onc(C)c2C)c(Cl)c1`, for which the EC50 is over 191 µM and the half-inhibitory concentration (IC50) worked out at 151 µM.

Take `N#C/C(=C\c1ccc(O)c(O)c1)C(=O)NCc1cccc(CNC(=O)/C(C#N)=C/c2ccc(O)c(O)c2)c1`: the EC50 is over 200 µM and the IC50 was found to be 10.2 µM.

On to `CC(C)(C)OC(=O)NC1CCC[C@H]1O` (stereo not given in full), for which the result was inactive.

As for `CCOC(=O)[C@H]1C[C@H]2O[C@H]2C[C@@H]1C`, the result was inactive.

With `O=Nc1sc(=N\O)/c(=N/O)sc1NO`, the EC50 was over 200 µM and the IC50 came to 32.4 µM.

Consider `CO[C@@]1(c2ccccc2)O[C@H]2OCCC2[C@H]1c1ccc(Cl)cc1` (stereo not given in full), for which the EC50 is over 11.5 µM and the half-maximal inhibitory concentration (IC50) is over 11.5 µM.

Consider `O=c1cc(N=Nc2ccc(Cl)cc2)[nH]c(=O)[nH]1`, for which the EC50 was over 2 µM and the IC50 is 0.851 µM.

On to `CCC(c1ccc(OC(C)=O)c(CC(Br)CBr)c1)C(CC)c1ccc(OC(C)=O)c(CC(Br)CBr)c1` (stereo not given), for which the EC50 was over 100 µM and the IC50 is 16.2 µM.

Consider `CCOC(=O)c1c(-c2ccccc2)nc2c(OC)nccn12`, for which the EC50 was over 200 µM and the half-maximal inhibitory concentration (IC50) came out at 126 µM.

On to `CC1=CCC[C@@H]2C1(C)CCC(C)[C@@]2(C)CC1=CC(=O)C=CC1=O` (stereo not given in full), for which the EC50 is over 50.1 µM and the half-inhibitory concentration (IC50) was 11.5 µM.

Turning to `CCCCCCCCCCCCCCCCCC(=O)OCC1OC(OC)C(NC(=O)N(CCCl)N=O)C(O)C1O` (stereo not given), the EC50 is over 8.71 µM and the IC50 was over 8.71 µM.

For the molecule `CC(C)CC(NC(=O)OC(C)(C)C)C(=O)NC(CCC(=O)OCc1ccccc1)C(N)=O` (stereo not drawn) (Boc-Leu-Glu(OBn)-NH2; configuration not given here), the EC50 was over 200 µM and the IC50 was determined as 191 µM.

With `[N-]=[N+]=C1N=CN=C1c1ncn[nH]1`, the EC50 was over 200 µM and the IC50 was 4.07 µM.

As to `COc1cc2ccc3c4c(OC)cc(OC)c(OC)c4c(=O)n(C)c3c2cc1OC`, the EC50 was over 45.7 µM and the 50% inhibitory concentration (IC50) was found to be 3.63 µM.

On to `N#C/C(=C/n1c(=S)[nH]c2ccc([N+](=O)[O-])cc21)C(N)=O`, for which the EC50 is over 200 µM and the IC50 is over 200 µM.

Take `Cc1ccc(C(=O)/C=C/c2ccccc2Cl)cc1`: the EC50 was over 5.62 µM and the IC50 is over 5.62 µM.

For `O=C1NC(=O)C(=Cc2ccccc2Br)C(=O)N1`, the EC50 was over 229 µM, the result was inactive and the half-maximal inhibitory concentration (IC50) was determined as 2.4 µM.

With `CC1(C)OC2OC(COC(=O)c3ccccc3)C(=O)C2O1` (stereo not given), the EC50 is over 200 µM and the 50% inhibitory concentration (IC50) was 13.8 µM.

`Cc1ccc(S(=O)(=O)c2c(N)n(CCN(C)C)c3nc4ccccc4nc23)cc1`: the EC50 is over 200 µM and the half-inhibitory concentration (IC50) was over 200 µM.

On to `O=C(Nc1ccc(Cl)cc1C(F)(F)F)C(=O)C1CCCS1(=O)=O` (stereo not given), for which the outcome was inactive.

Turning to `COc1cc(/C=C2\CC(C)C/C(=C\c3ccc(O)c(OC)c3)C2=O)ccc1O` (stereo not given), the EC50 is over 200 µM and the concentration for half-maximal inhibition (IC50) amounted to 3.39 µM.

With `CC(=O)[O-].CC(=O)[O-].[Mn+2].c1ccc(/C(=N\Nc2ccccn2)c2ccccn2)cc1`, the result was inactive.

On to `O=C(Cc1ccccc1)NN1C(=O)/C(=C\c2cccc([N+](=O)[O-])c2)SC1=Nc1ccccc1`, for which the EC50 was over 56.2 µM and the IC50 was over 56.2 µM.

In the case of `O=C(NC(Cc1cnc[nH]1)C(=O)N1CCCC1)C1CCCC1` (stereo not given), the EC50 is over 200 µM.

For `COc1ccc(-c2nc(-c3cnccn3)n(C3OC(CO)C(O)C3O)n2)cc1` (stereo not given), the EC50 was over 200 µM and the IC50 was over 200 µM.

`NCCNCCCCCCCCCCCCOS(=O)(=O)O`: the EC50 is over 112 µM and the half-maximal inhibitory concentration (IC50) was over 112 µM.

Regarding `CC1=NNC(=O)C1C1CC(c2c[nH]c3ccccc23)=NN/C1=N\N` (stereo not given), the EC50 was over 100 µM and the IC50 is over 100 µM.

As to `OC[C@@H](O)[C@H](O)[C@H](O)[C@@H](O)C1SCCCS1`, the EC50 was over 200 µM and the half-maximal inhibitory concentration (IC50) was over 200 µM.

Regarding `CCn1c(C)nn2c(=O)c3ccccc3nc2c1=O`, the EC50 is over 100 µM and the 50% inhibitory concentration (IC50) is over 100 µM.

On to `O=S(=O)(c1ccccc1)S(=O)(=O)c1ccccc1`, for which the EC50 is over 47.9 µM and the concentration for half-maximal inhibition (IC50) was over 47.9 µM.

For the molecule `COc1cc2c(cc1OCCN1C(=O)c3cccc4cccc(c34)C1=O)N=C[C@@H]1CCCN1C2=O`, the EC50 is over 41.7 µM and the IC50 was determined as 5.5 µM.

With `Cc1cc(=O)[nH]c(CNC(=O)Cc2ccccc2)n1`, the EC50 was over 977 µM and the IC50 was over 977 µM.

`c1ccc(-c2sc(-c3ccccc3)c3c2C(c2ccccc2)c2c(-c4ccccc4)sc(-c4ccccc4)c2C3c2ccccc2)cc1` (stereo not given): the result was inactive.

With `CC1(C)COC2(OC1)C1=NS(=O)(=O)CC13CCC2C3(C)C` (stereo not given), the EC50 is over 57.5 µM and the half-maximal inhibitory concentration (IC50) was over 57.5 µM.
